Source: ChEMBL document CHEMBL1153804, “Optimization of a series of quinazolinone-derived antagonists of CXCR3” (Bioorg Med Chem Lett, 2009)

system: Blood; experiment: Drug level in bleomycin-induced mouse blood at 1 mg/mL, sc; format: ADME, tissue-based

CCOc1ccc(-n2c([C@@H](C)N(Cc3cccnc3)C(=O)Cc3ccc(OC(F)(F)F)cc3)nc3ncccc3c2=O)cc1 and CCOc1ccc(-n2c([C@@H](C)N(Cc3ccc[n+]([O-])c3)C(=O)Cc3ccc(OC(F)(F)F)cc3)nc3ncccc3c2=O)cc1 are within 1.5-fold of each other in Drug uptake: 19 ng/mL for the first, 14 ng/mL for the second.

target: T1, C-X-C chemokine receptor type 3 (Homo sapiens, UniProt P49682); experiment: Displacement of [125I]-1P10 from human CXCR3 expressed in PBMC after 2 hrs in RPMI buffer by scintillation counting
T1 sequence (P49682 whole entry): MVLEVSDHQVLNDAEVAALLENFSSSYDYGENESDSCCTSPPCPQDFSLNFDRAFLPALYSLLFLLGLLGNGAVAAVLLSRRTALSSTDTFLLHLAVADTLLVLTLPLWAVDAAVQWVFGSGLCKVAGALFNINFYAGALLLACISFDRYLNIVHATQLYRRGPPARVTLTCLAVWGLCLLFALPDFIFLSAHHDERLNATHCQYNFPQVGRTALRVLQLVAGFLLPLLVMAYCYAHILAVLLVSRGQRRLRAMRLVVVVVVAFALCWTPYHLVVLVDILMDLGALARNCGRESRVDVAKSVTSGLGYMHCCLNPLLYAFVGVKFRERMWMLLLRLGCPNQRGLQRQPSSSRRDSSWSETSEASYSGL

First: CCOc1ccc(-n2c([C@@H](C)N(Cc3cccnc3)C(=O)Cc3cc(F)c(F)c(F)c3)nc3ccccc3c2=O)cc1
Second: CCOc1ccc(-n2c([C@@H](C)N(Cc3cccnc3)C(=O)Cc3ccc(F)c(F)c3)nc3ccccc3c2=O)cc1
The IC50 of the first is 5-fold lower: 8 nM for the first, 40 nM for the second.

Going from CCOc1ccc(-n2c([C@@H](C)N(Cc3cccnc3)C(=O)Cc3ccc(F)c(C(F)(F)F)c3)nc3ncccc3c2=O)cc1 to CCOc1ccc(-n2c([C@@H](C)N(Cc3cccnc3)C(=O)Cc3ccc(F)c(C(F)(F)F)c3)nc3cccnc3c2=O)cc1, the IC50 rises from 5 nM to 110 nM (22-fold).

Compared with CCOc1ccc(-n2c([C@@H](C)N(Cc3cccnc3)C(=O)Cc3cc(C(F)(F)F)cc(C(F)(F)F)c3)nc3ccccc3c2=O)cc1, CCOc1ccc(-n2c([C@@H](C)N(Cc3cccnc3)C(=O)Cc3cccc(C(F)(F)F)c3)nc3ccccc3c2=O)cc1 is 1.6-fold higher in IC50: 7 nM for the first, 11 nM for the second. The first is the more potent here.

Compared with CCOc1ccc(-n2c([C@@H](C)N(C[C@@H]3CCCN3C(C)C)C(=O)Cc3ccc(F)c(C(F)(F)F)c3)nc3ncccc3c2=O)cc1, CCOc1ccc(-n2c([C@@H](C)N(C[C@H]3CCCN3C(C)C)C(=O)Cc3ccc(F)c(C(F)(F)F)c3)nc3ncccc3c2=O)cc1 is 2.5-fold lower in IC50: 5 nM for the first, 2 nM for the second. The second is the more potent here.

CCOc1ccc(-n2c([C@@H](C)N(Cc3cccnc3)C(=O)Cc3ccc(F)c(C(F)(F)F)c3)nc3nccnc3c2=O)cc1 and CCOc1ccc(-n2c([C@@H](C)N(Cc3cccnc3)C(=O)Cc3ccc(F)c(C(F)(F)F)c3)nc3cnccc3c2=O)cc1 are within 1.5-fold of each other in IC50: 42 nM for the first, 32 nM for the second.

Compared with CCOc1ccc(-n2c([C@@H](C)N(Cc3cccnc3)C(=O)Cc3ccc(C#N)cc3)nc3ccccc3c2=O)cc1, CCOc1ccc(-n2c([C@@H](C)N(Cc3cccnc3)C(=O)Cc3ccc(S(C)(=O)=O)cc3)nc3ccccc3c2=O)cc1 is 37-fold higher in IC50: 21 nM for the first, 770 nM for the second. The first is the more potent here.

First: CCOc1ccc(-n2c([C@@H](C)N(C(=O)Cc3ccc(F)c(C(F)(F)F)c3)C3CCN(C(C)C)CC3)nc3ncccc3c2=O)cc1
Second: CCOc1ccc(-n2c([C@@H](C)N(C(=O)Cc3ccc(F)c(C(F)(F)F)c3)C3CCN(C(C)=O)CC3)nc3ncccc3c2=O)cc1
The IC50 of the first is 6-fold lower: 1 nM for the first, 6 nM for the second.

Going from CCOc1ccc(-n2c([C@@H](C)N(Cc3ccc[n+]([O-])c3)C(=O)Cc3ccc(OC(F)(F)F)cc3)nc3ncccc3c2=O)cc1 to CCOc1ccc(-n2c([C@@H](C)N(Cc3cccnc3)C(=O)CCc3ccc(C(F)(F)F)cc3)nc3ccccc3c2=O)cc1, the IC50 rises from 4 nM to 2090 nM (520-fold).

First: CCOc1ccc(-n2c([C@@H](C)N(Cc3cccnc3)C(=O)Cc3nc4ccc(C(F)(F)F)cc4[nH]3)nc3ccccc3c2=O)cc1
Second: CCOc1ccc(-n2c([C@@H](C)N(Cc3cccnc3)C(=O)Cn3cnc(C(F)(F)F)c3)nc3ccccc3c2=O)cc1
The IC50 of the first is 30-fold higher: 210 nM for the first, 7 nM for the second. The second is the more potent here.

Going from CCOc1ccc(-n2c([C@@H](C)N(C(=O)Cc3ccc(F)c(C(F)(F)F)c3)C3CCOCC3)nc3ncccc3c2=O)cc1 to CCOc1ccc(-n2c([C@@H](C)N(C[C@H]3CCCN3)C(=O)Cc3ccc(F)c(C(F)(F)F)c3)nc3ncccc3c2=O)cc1, the IC50 falls from 5 nM to 2 nM (2.5-fold). The second is the more potent here.

Going from CCOc1ccc(-n2c([C@@H](C)N(Cc3cccnc3)C(=O)CN3CCN(CCC(F)(F)F)CC3)nc3ccccc3c2=O)cc1 to CCOc1ccc(-n2c([C@@H](C)N(CC3CCN(C)CC3)C(=O)Cc3ccc(F)c(C(F)(F)F)c3)nc3ncccc3c2=O)cc1, the IC50 falls from 690 nM to 2 nM (340-fold). The second is the more potent here.

CCOc1ccc(-n2c([C@@H](C)N(Cc3cc(C)no3)C(=O)Cc3ccc(F)c(C(F)(F)F)c3)nc3ncccc3c2=O)cc1 gave an IC50 of 2 nM.

system: Blood; experiment: Drug level in bleomycin-induced mouse blood at 10 mg/mL, sc; format: ADME, tissue-based

With CCOc1ccc(-n2c([C@@H](C)N(Cc3cccnc3)C(=O)Cc3ccc(OC(F)(F)F)cc3)nc3ncccc3c2=O)cc1 the Drug uptake was 104 ng/mL.

system: Blood; experiment: Drug level in bleomycin-induced mouse blood at 3 mg/mL, sc; format: ADME, tissue-based

CCOc1ccc(-n2c([C@@H](C)N(Cc3cccnc3)C(=O)Cc3ccc(OC(F)(F)F)cc3)nc3ncccc3c2=O)cc1 and CCOc1ccc(-n2c([C@@H](C)N(Cc3ccc[n+]([O-])c3)C(=O)Cc3ccc(OC(F)(F)F)cc3)nc3ncccc3c2=O)cc1 are within 1.5-fold of each other in Drug uptake: 26 ng/mL for the first, 19 ng/mL for the second.
